Reference: patent publication US8933071B2, “Dimethyl fasudil for inducing polyploidization of megakaryocytes and for treating blood and bone marrow diseases and disorders” (Northwestern University, priority 2008, dated 2015)

What was measured:
[1] = tested on: Y10 cells; assay: Polyploidization of Y10 cells (DNA content by flow cytometry); type: cell-based; conditions: wild-type (Y10) cells, 72 hours
Method: (§1) FIG. 2 illustrates that SU6656 induces polyploidization and proliferative arrest of megakaryocytic leukemia cells. (A) Y10, (B) GIME, and (C) CMK cells were grown in the presence of TPO, SU6656, or vehicle (DMSO) for 72 hours. DNA content was measured by flow cytometry. The percentages of cells that reach a DNA content of ≧8N are boxed in A and C, those equal to 8N are boxed in B. D) CMK cells were grown as in (C), and cell numbers were enumerated at 0, 24, 48 and 72 h.
(§2) To study how megakaryocytes switch from a proliferative to endomitotic cell cycle, the Src kinase inhibitor SU6656 is being utilized.

[2] = tested on: GIME cells; assay: Polyploidization of GIME cells (DNA content by flow cytometry); type: cell-based; conditions: GATA1-null (GIME) cells, 72 hours
Method: as §1, with “(A)” for “FIG. 2 illustrates that SU6656 induces polyploidization and proliferative arrest of megakaryocytic leukemia cells. (A)”
DNA content was then assessed by flow cytometry. Numbers above the bar indicate % of cells ≧8N. b) After 48 hours, GIME cells from a) were stained with anti-CD42 antibodies and the cell surface expression of CD42 was evaluated by flow cytometry.
as §2

[3] = tested on: CMK cells; assay: Polyploidization of CMK cells (DNA content); type: cell-based, human; conditions: GATA1/JAK3 double mutant CMK cell line, 72 hours
Method: as §1, with “(A)” for “FIG. 2 illustrates that SU6656 induces polyploidization and proliferative arrest of megakaryocytic leukemia cells. (A)”
as §2
In collaboration with the Broad Institute, a high throughput screen for small molecules was conducted to identify small molecules that preferentially induce polyploidization or differentiation of megakaryocytes. We screened 10,000 compounds from the Broad's extensive collection of small molecules (including known bioactives, kinase and HDAC inhibitors, and natural products) to identify inducers of megakaryocyte polyploidization. […] 6) Data were analyzed using both MetaXpress software and “Cell Profiler,” software designed at MIT and the Broad Institute. […]

[4] = tested on: primary murine megakaryocytes; assay: Polyploidization of primary murine megakaryocytes; type: cell-based; conditions: data not shown
From the text: as §2

[5] = tested on: CMK cells; assay: CMK cell proliferation (cell numbers enumerated); type: cell-based, human; conditions: CMK cells, 0, 24, 48 and 72 h
Method: as §1, §2

[6] = tested on: wild-type and GATA-1 mutant megakaryocyte progenitors; assay: Proliferation of megakaryocyte progenitors; type: cell-based; conditions: preliminary data
From the text: The paradigm for successful, targeted differentiation therapy is the use of all trans retinoic acid (ATRA) for treatment of Acute Promyelocytic Leukemia (APL) (for a review, see (20). Prior to the development of ATRA therapy, the prognosis for patients with APL, which represents 5-10% of adult AML, was very poor. In contrast, the vast majority of APL patients treated with ATRA achieve hematologic remission (21-23). One aim of the current study is to test novel therapeutic strategies for AMKL, in particular, whether the forced induction of MK polyploidization can serve as a “differentiation therapy” for AMKL. […] Furthermore, megakaryocytes are one of the few cell types that are poised to undergo polyploidization during normal maturation.

[7] = tested on: CMK (human megakaryocytic leukemia) cells; assay: High throughput screen for inducers of megakaryocyte polyploidization; type: cell-based; conditions: 10 μM, 72 hours, Hoescht stain, high content imaging
Method: In collaboration with the Broad Institute, a high throughput screen for small molecules was conducted to identify small molecules that preferentially induce polyploidization or differentiation of megakaryocytes. We screened 10,000 compounds from the Broad's extensive collection of small molecules (including known bioactives, kinase and HDAC inhibitors, and natural products) to identify inducers of megakaryocyte polyploidization. The screen was performed in the following manner: 1) 4,000 CMK (human megakaryocytic leukemia) cells were plated into each well of a 384-well plate, 2) 100 n1 of compounds (yielding a final concentration of 10 μM) were pinned into the wells, 3) plates were incubated at 37° C. for 72 hours, 4) cells were fixed and stained with Hoescht, and 5) plates were imaged using an ImageXpressMICRO high content imager with 20× objective. Nine images per well were collected. 6) Data were analyzed using both MetaXpress software and “Cell Profiler,” software designed at MIT and the Broad Institute. Seventy-two plates containing duplicates of nearly 10,000 small molecules were screened.

CN(C)S(=O)(=O)c1ccc2c(c1)/C(=C/c1cc3c([nH]1)CCCC3)C(=O)N2 [SU6656]
polyploidization [1]: efficiently promoted polyploidization | polyploidization [2]: efficiently promoted polyploidization | polyploidization [3]: efficiently promoted polyploidization | polyploidization [4]: promote polyploidization | proliferation (cell numbers) [5]: cessation of proliferation | proliferation of megakaryocyte progenitors [6]: effectively reduces proliferation | positive in polyploidization screen [7]: positives
